Test results published in a compilation of properties of binary mixtures (doi:10.2298/jsc190413047v).

Test: xn = mol fraction of the nth substance listed
Settings: 100 kPa

CCCCCCCCn1cc[n+](C)c1.O=S(=O)([N-]S(=O)(=O)C(F)(F)F)C(F)(F)F + O=C1CCCO1
electrical conductivity [S/m]
Settings | x2 = 0 | x2 = 0.0997 | x2 = 0.2993 | x2 = 0.5048 | x2 = 0.6963 | x2 = 0.7994 | x2 = 0.8503 | x2 = 0.8999 | x2 = 0.9514
293.15 K | 0.106 | 0.126 | 0.184 | – | 0.601 | 0.845 | 0.953 | 0.984 | 0.653
298.15 K | – | 0.161 | 0.235 | 0.396 | – | 0.955 | 1.06 | 1.07 | 0.718
303.15 K | 0.17 | 0.199 | 0.28 | 0.474 | 0.83 | 1.07 | 1.17 | 1.18 | –
308.15 K | – | 0.24 | 0.342 | 0.553 | 0.94 | 1.21 | 1.29 | 1.29 | 0.853
313.15 K | 0.254 | 0.285 | – | 0.636 | 1.06 | 1.33 | 1.41 | 1.39 | 0.915
318.15 K | – | – | 0.48 | 0.744 | 1.19 | 1.47 | 1.53 | – | 0.976
323.15 K | 0.361 | 0.397 | – | 0.817 | 1.33 | 1.56 | 1.64 | 1.59 | –

CCCC[n+]1ccn(C)c1.O=S(=O)([N-]S(=O)(=O)C(F)(F)F)C(F)(F)F + O=C1CCCCO1
x1 = 1
Settings | electrical conductivity [S/m]
293.15 K | 0.337
303.15 K | 0.472
308.15 K | 0.552
313.15 K | 0.64
323.15 K | 0.835

CCCCn1cc[n+](C)c1C.O=S(=O)([N-]S(=O)(=O)C(F)(F)F)C(F)(F)F + O=C1CCCO1
electrical conductivity [S/m]
Settings | 293.15 K | 298.15 K | 303.15 K | 308.15 K | 313.15 K | 318.15 K | 323.15 K
x2 = 0 | 0.178 | 0.23 | 0.289 | 0.351 | 0.426 | – | –
x2 = 0.1014 | – | 0.262 | 0.325 | 0.398 | – | 0.569 | 0.669
x2 = 0.1987 | 0.246 | 0.301 | 0.367 | 0.442 | 0.525 | 0.619 | 0.739
x2 = 0.3 | – | 0.37 | – | – | 0.631 | 0.729 | 0.842
x2 = 0.4001 | 0.381 | 0.465 | 0.567 | 0.67 | 0.787 | 0.904 | 1.03
x2 = 0.4995 | 0.511 | 0.613 | 0.722 | 0.861 | 0.976 | 1.1 | 1.27
x2 = 0.5994 | 0.706 | 0.807 | 0.934 | 1.07 | 1.22 | 1.36 | 1.52
x2 = 0.7012 | 0.882 | 1.01 | 1.14 | – | – | – | 1.74
x2 = 0.8001 | – | 1.25 | 1.39 | 1.53 | 1.68 | 1.83 | 1.99
x2 = 0.8496 | 1.19 | 1.31 | 1.45 | 1.58 | 1.72 | 1.85 | 2
x2 = 0.8996 | 1.18 | – | 1.41 | 1.53 | 1.66 | 1.78 | 1.91
x2 = 0.9468 | 0.849 | 0.927 | – | 1.1 | 1.2 | 1.3 | 1.41

CC[n+]1ccn(C)c1.O=S(=O)([N-]S(=O)(=O)C(F)(F)F)C(F)(F)F + O=C1CCCO1
electrical conductivity [S/m]
Settings | 293.15 K | 298.15 K | 303.15 K | 308.15 K | 313.15 K | 318.15 K | 323.15 K
x2 = 0 | – | 0.915 | – | – | – | 1.51 | 1.75
x2 = 0.1009 | 0.905 | 1.04 | 1.18 | 1.32 | 1.49 | 1.67 | 1.89
x2 = 0.2073 | 1.05 | – | – | 1.48 | 1.65 | – | –
x2 = 0.3005 | – | 1.32 | – | 1.61 | – | 1.96 | 2.19
x2 = 0.3897 | 1.29 | 1.45 | 1.61 | 1.76 | 1.92 | 2.11 | 2.34
x2 = 0.5101 | – | 1.63 | – | 1.95 | 2.12 | – | 2.53
x2 = 0.6 | 1.6 | 1.76 | 1.93 | 2.09 | 2.25 | 2.45 | –
x2 = 0.7 | 1.73 | 1.9 | – | 2.23 | 2.4 | 2.59 | 2.81
x2 = 0.7994 | 1.77 | 1.94 | – | – | 2.42 | – | 2.79
x2 = 0.8498 | 1.75 | 1.9 | – | 2.19 | 2.35 | 2.51 | 2.71
x2 = 0.9005 | – | 1.72 | 1.85 | 1.98 | – | 2.25 | 2.4
x2 = 0.95 | – | 1.22 | – | 1.4 | 1.5 | – | 1.7

CCCC[N+]1(C)CCCC1.O=S(=O)([N-]S(=O)(=O)C(F)(F)F)C(F)(F)F + O=C1CCCO1
Settings | electrical conductivity [S/m] | viscosity [mPa·s]
298.15 K, x2 = 0 | 0.277 | 76.7
298.15 K, x2 = 0.1075 | 0.329 | 58.5
298.15 K, x2 = 0.2019 | 0.394 | 44.4
298.15 K, x2 = 0.3004 | 0.468 | 34.2
298.15 K, x2 = 0.3996 | 0.554 | 24.5
298.15 K, x2 = 0.5044 | 0.726 | 16.91
298.15 K, x2 = 0.5999 | 0.953 | 12.03
298.15 K, x2 = 0.7009 | 1.24 | 8.13
298.15 K, x2 = 0.7997 | 1.47 | 5.31
298.15 K, x2 = 0.8509 | 1.55 | –
298.15 K, x2 = 0.9 | 1.46 | 3.32
298.15 K, x2 = 0.9498 | 1.12 | –
303.15 K, x2 = 0 | 0.338 | 61.7
303.15 K, x2 = 0.1075 | 0.381 | 47.8
303.15 K, x2 = 0.3004 | 0.545 | 28.4
303.15 K, x2 = 0.3996 | 0.654 | 20.78
303.15 K, x2 = 0.5044 | 0.818 | 14.5
303.15 K, x2 = 0.5999 | 1.08 | 10.43
303.15 K, x2 = 0.7009 | 1.37 | 7.18
303.15 K, x2 = 0.7997 | 1.63 | 4.78
303.15 K, x2 = 0.8509 | 1.72 | –
303.15 K, x2 = 0.9 | 1.59 | 3.04
303.15 K, x2 = 0.9498 | 1.22 | –
308.15 K, x2 = 0 | 0.412 | 50.5
308.15 K, x2 = 0.2019 | 0.545 | 30.6
308.15 K, x2 = 0.3996 | 0.758 | 17.56
308.15 K, x2 = 0.5044 | 0.92 | 12.58
308.15 K, x2 = 0.5999 | 1.21 | 9.19
308.15 K, x2 = 0.7009 | 1.52 | 6.39
308.15 K, x2 = 0.7997 | 1.8 | 4.35
308.15 K, x2 = 0.8509 | 1.89 | –
308.15 K, x2 = 0.9 | 1.72 | 2.79
313.15 K, x2 = 0 | 0.491 | 41.7
313.15 K, x2 = 0.1075 | 0.538 | 32.9
313.15 K, x2 = 0.2019 | 0.621 | 26.1
313.15 K, x2 = 0.3004 | 0.736 | 20.38
313.15 K, x2 = 0.3996 | 0.865 | 15.37
313.15 K, x2 = 0.5044 | 1.02 | 11.12
313.15 K, x2 = 0.5999 | 1.34 | 8.16
313.15 K, x2 = 0.7997 | 1.97 | 3.96
313.15 K, x2 = 0.8509 | 2.06 | –
313.15 K, x2 = 0.9 | 1.85 | 2.57
318.15 K, x2 = 0 | 0.579 | 34.7
318.15 K, x2 = 0.1075 | 0.616 | 27.6
318.15 K, x2 = 0.3004 | 0.812 | 17.43
318.15 K, x2 = 0.3996 | 0.971 | 13.26
318.15 K, x2 = 0.5044 | 1.15 | 9.7
318.15 K, x2 = 0.5999 | 1.45 | 7.2
318.15 K, x2 = 0.7009 | 1.83 | 5.14
318.15 K, x2 = 0.7997 | 2.14 | 3.6
318.15 K, x2 = 0.9 | 1.99 | 2.38
323.15 K, x2 = 0 | 0.672 | 29.5
323.15 K, x2 = 0.1075 | 0.713 | 23.1
323.15 K, x2 = 0.2019 | 0.785 | 19.22
323.15 K, x2 = 0.3996 | 1.08 | 11.55
323.15 K, x2 = 0.5044 | 1.28 | 8.62
323.15 K, x2 = 0.7997 | 2.31 | 3.31
323.15 K, x2 = 0.8509 | 2.4 | –
323.15 K, x2 = 0.9 | 2.12 | 2.21
